Measured values taken from publication PMC7046553, “Backbone Cyclization and Dimerization of LL-37-Derived Peptides Enhance Antimicrobial Activity and Proteolytic Stability” (Frontiers in Microbiology, 2020).
In brackets after ≈: the same amount, converted by molar mass. Like-named read-outs stand apart in the source and are kept apart here. Where a SMILES comes first, the peptide text is derived from it. Where no end group is shown, it is not given here.

Key:
[1] = test system: Candida albicans ATCC 90028
Method: (§1) The three bacterial strains: Escherichia coli ATCC 25922, Pseudomonas aeruginosa ATCC 27853 Staphylococcus aureus ATCC 29213 as well as the fungal strain Candida albicans ATCC 90028 derived from clinical wound infections were obtained from the Department of Clinical Bacteriology at Lund University Hospital.
(§2) Antimicrobial activities of the peptides were evaluated using the two-step microdilution assay ([Strömstedt et al., 2017]), which is designed for testing AMPs without activity-inhibiting components. Briefly, the microbial suspension was washed twice with 10 mM Tris buffer (set to pH 7.4 at 37°C). 96-well plates (U-shaped, untreated polystyrene) were prepared with peptide 2-fold serial dilutions in Tris buffer. The culture density was quantified by OD600, diluted in Tris buffer and 50,000 cells aliquoted to each well in the 96-well plate to a final 100 μl volume. After 5 h of aerobic incubation at 37°C, 5 μl of 20% TSB medium was added to each well (resulting in 1% TSB) and the plates were re-incubated. Growth-inhibition was monitored when controls produced pellet sizes of 2 mm in diameter (close to growth saturation), which equates to 5, 8, 10, and 12 h for E. coli, S. aureus, P. aeruginosa, and C. albicans, respectively. […] The MIC-values in Table 1, are medians from triplicate experiments, while the data presented in the Figure 2 are the same values relative to that of KR-12.

[2] = test system: Escherichia coli ATCC 25922; details: ATCC 25922, 5 h
Method: as §1, §2

[3] = test system: Pseudomonas aeruginosa ATCC 27853
Method: as §1, §2

[4] = test system: Staphylococcus aureus ATCC 29213; details: ATCC 29213, 5 h
Method: as §1, §2

[5] = in vitro; details: 25% human serum
Method: Proteolytic stability of the peptides were determined in diluted human serum (1:4 v/v, serum:PBS) at 37°C followed by LC-MS analysis. To examine the intact peptide after serum incubation, aliquots of each incubation mixture were taken at each time point for LC-MS analysis (Figure 5).
Peptide stability was assayed in diluted human serum. 25% human serum was centrifuged at 13,000 rpm for 10 min to remove lipids and the supernatant was collected and incubated at 37°C for 15 min. […] Eighty μl of 6 M urea was added and incubated at 4°C for a further 10 min. 80 μl of 20% TCA was added and incubated at 4°C for a further 10 min. The samples were centrifuged at 13000 g for 10 min and the supernatant was analyzed by LC-MS.

[6] = median of triplicate experiments

MIC C. albicans ([1]; ATCC 90028, 5 h) | MIC E. coli [2] | MIC P. aeruginosa ([3]; ATCC 27853, 5 h) | MIC S. aureus [4] | Molecule | further results
2.5 µM (≈ 9.06 µg/mL) | 0.625 µM (≈ 2.27 µg/mL) | 1.25 µM (≈ 4.53 µg/mL) | 1.25 µM (≈ 4.53 µg/mL) | CC[C@H](C)[C@@H]1NC(=O)[C@H](CCCCN)NC(=O)[C@H](CC(=O)O)NC(=O)[C@H](Cc2ccccc2)NC(=O)[C@H](CC(C)C)NC(=O)[C@H](CCCNC(=N)N)NC(=O)CNC(=O)CNC(=O)[C@H](CS)NC(=O)CNC(=O)[C@H](CCCCN)NC(=O)[C@H](CCCNC(=N)N)NC(=O)[C@H]([C@@H](C)CC)NC(=O)[C@H](C(C)C)NC(=O)[C@H](CCC(N)=O)NC(=O)[C@H](CCCNC(=N)N)NC(=O)[C@H]([C@@H](C)CC)NC(=O)[C@H](CCCCN)NC(=O)[C@H](CC(=O)O)NC(=O)[C@H](Cc2ccccc2)NC(=O)[C@H](CC(C)C)NC(=O)[C@H](CCCNC(=N)N)NC(=O)CNC(=O)CNC(=O)[C@H](C)NC(=O)CNC(=O)[C@H](CCCCN)NC(=O)[C@H](CCCNC(=N)N)NC(=O)[C@H]([C@@H](C)CC)NC(=O)[C@H](C(C)C)NC(=O)[C@H](CCC(N)=O)NC(=O)[C@H](CCCNC(=N)N)NC1=O [Peptide 2retro-cd4] (cyclo(CGGRLFDKIRQVIRKGAGGRLFDKIRQVIRKG)) | –
1.25 µM (≈ 4.35 µg/mL) | 0.625 µM (≈ 2.17 µg/mL) | 0.625 µM (≈ 2.17 µg/mL) | 1.25 µM (≈ 4.35 µg/mL) | CC[C@H](C)[C@@H]1NC(=O)[C@H](CCCNC(=N)N)NC(=O)[C@H](CCC(N)=O)NC(=O)[C@H](C(C)C)NC(=O)[C@H]([C@@H](C)CC)NC(=O)[C@H](CCCNC(=N)N)NC(=O)[C@H](CCCCN)NC(=O)CNC(=O)[C@H](C)NC(=O)CNC(=O)[C@H](CCCNC(=N)N)NC(=O)[C@H](CC(C)C)NC(=O)[C@H](Cc2ccccc2)NC(=O)[C@H](CC(=O)O)NC(=O)[C@H](CCCCN)NC(=O)[C@H]([C@@H](C)CC)NC(=O)[C@H](CCCNC(=N)N)NC(=O)[C@H](CCC(N)=O)NC(=O)[C@H](C(C)C)NC(=O)[C@H]([C@@H](C)CC)NC(=O)[C@H](CCCNC(=N)N)NC(=O)[C@H](CCCCN)NC(=O)CNC(=O)[C@H](C)NC(=O)CNC(=O)[C@H](CCCNC(=N)N)NC(=O)[C@H](CC(C)C)NC(=O)[C@H](Cc2ccccc2)NC(=O)[C@H](CC(=O)O)NC(=O)[C@H](CCCCN)NC1=O [cd3] (cyclo(AGKRIVQRIKDFLRGAGKRIVQRIKDFLRG)) | –
– | – | – | – | CC(C)C[C@@H]1NC(=O)CNC(=O)[C@H](CC(N)=O)NC(=O)[C@H](CCCNC(=N)N)NC(=O)[C@H]([C@@H](C)O)NC(=O)[C@@H]2CSSC[C@@H]3NC(=O)[C@H]([C@@H](C)O)NC(=O)CNC(=O)CNC(=O)[C@H](C(C)C)NC(=O)[C@@H]4CSSC[C@H](NC(=O)[C@H]([C@@H](C)O)NC(=O)[C@H](CSSC[C@H](NC(=O)[C@H](C(C)C)NC(=O)[C@@H]5CCCN5C1=O)C(=O)NCC(=O)N[C@@H](CCC(=O)O)C(=O)N[C@@H]([C@@H](C)O)C(=O)N4)NC(=O)CNC(=O)[C@@H]1CCCN1C(=O)[C@H]([C@@H](C)O)NC(=O)[C@H](CC(N)=O)NC3=O)C(=O)N[C@@H](CO)C(=O)N[C@@H](Cc1c[nH]c3ccccc13)C(=O)N1CCC[C@H]1C(=O)N[C@@H](C(C)C)C(=O)N2 [kalata B1, reference compound] | remaining at 24 h ([5]; human): 80%
2.5 µM (≈ 8.41 µg/mL) | 0.625 µM (≈ 2.1 µg/mL) | 1.25 µM (≈ 4.21 µg/mL) | 1.25 µM (≈ 4.21 µg/mL) | CC[C@H](C)[C@@H]1NC(=O)[C@H](CCCCN)NC(=O)[C@H](CC(=O)O)NC(=O)[C@H](Cc2ccccc2)NC(=O)[C@H](CC(C)C)NC(=O)[C@H](CCCNC(=N)N)NC(=O)[C@H](C)NC(=O)CNC(=O)[C@H](CCCNC(=N)N)NC(=O)[C@H](CC(C)C)NC(=O)[C@H](Cc2ccccc2)NC(=O)[C@H](CC(=O)O)NC(=O)[C@H](CCCCN)NC(=O)[C@H]([C@@H](C)CC)NC(=O)[C@H](CCCNC(=N)N)NC(=O)[C@H](CCC(N)=O)NC(=O)[C@H](C(C)C)NC(=O)[C@H]([C@@H](C)CC)NC(=O)[C@H](CCCNC(=N)N)NC(=O)[C@H](CCCCN)NC(=O)[C@H](C)NC(=O)CNC(=O)[C@H](CCCCN)NC(=O)[C@H](CCCNC(=N)N)NC(=O)[C@H]([C@@H](C)CC)NC(=O)[C@H](C(C)C)NC(=O)[C@H](CCC(N)=O)NC(=O)[C@H](CCCNC(=N)N)NC1=O [retro-cd2] (cyclo(AKRIVQRIKDFLRGARLFDKIRQVIRKG)) | –
2.5 µM (≈ 8.7 µg/mL) | 1.25 µM (≈ 4.35 µg/mL) | 1.25 µM (≈ 4.35 µg/mL) | 1.25 µM (≈ 4.35 µg/mL) | CC[C@H](C)[C@@H]1NC(=O)[C@H](CCCCN)NC(=O)[C@H](CC(=O)O)NC(=O)[C@H](Cc2ccccc2)NC(=O)[C@H](CC(C)C)NC(=O)[C@H](CCCNC(=N)N)NC(=O)CNC(=O)[C@H](C)NC(=O)CNC(=O)[C@H](CCCNC(=N)N)NC(=O)[C@H](CC(C)C)NC(=O)[C@H](Cc2ccccc2)NC(=O)[C@H](CC(=O)O)NC(=O)[C@H](CCCCN)NC(=O)[C@H]([C@@H](C)CC)NC(=O)[C@H](CCCNC(=N)N)NC(=O)[C@H](CCC(N)=O)NC(=O)[C@H](C(C)C)NC(=O)[C@H]([C@@H](C)CC)NC(=O)[C@H](CCCNC(=N)N)NC(=O)[C@H](CCCCN)NC(=O)CNC(=O)[C@H](C)NC(=O)CNC(=O)[C@H](CCCCN)NC(=O)[C@H](CCCNC(=N)N)NC(=O)[C@H]([C@@H](C)CC)NC(=O)[C@H](C(C)C)NC(=O)[C@H](CCC(N)=O)NC(=O)[C@H](CCCNC(=N)N)NC1=O [retro-cd3] (cyclo(AGKRIVQRIKDFLRGAGRLFDKIRQVIRKG)) | –
– | – | – | – | CC[C@H](C)[C@@H]1NC(=O)[C@H](CCCCN)NC(=O)[C@H](CC(=O)O)NC(=O)[C@H](Cc2ccccc2)NC(=O)[C@H](CC(C)C)NC(=O)[C@H](CCCNC(=N)N)NC(=O)CNC(=O)CNC(=O)[C@H](C)NC(=O)CNC(=O)[C@H](CCCNC(=N)N)NC(=O)[C@H](CC(C)C)NC(=O)[C@H](Cc2ccccc2)NC(=O)[C@H](CC(=O)O)NC(=O)[C@H](CCCCN)NC(=O)[C@H]([C@@H](C)CC)NC(=O)[C@H](CCCNC(=N)N)NC(=O)[C@H](CCC(N)=O)NC(=O)[C@H](C(C)C)NC(=O)[C@H]([C@@H](C)CC)NC(=O)[C@H](CCCNC(=N)N)NC(=O)[C@H](CCCCN)NC(=O)CNC(=O)CNC(=O)[C@H](C)NC(=O)CNC(=O)[C@H](CCCCN)NC(=O)[C@H](CCCNC(=N)N)NC(=O)[C@H]([C@@H](C)CC)NC(=O)[C@H](C(C)C)NC(=O)[C@H](CCC(N)=O)NC(=O)[C@H](CCCNC(=N)N)NC1=O [retro-cd4] (cyclo(AGGKRIVQRIKDFLRGAGGRLFDKIRQVIRKG)) | MIC C. albicans [1, 6]: 2.5 µM (≈ 8.98 µg/mL); MIC P. aeruginosa [3, 6]: 0.625 µM (≈ 2.25 µg/mL)
0.625 µM | 0.625 µM | 0.625 µM | 1.25 µM | CGGKRIVQRIKDFLRGAGGRLFDKIRQVIRKG-NH2 (C-terminus assumed) [retro-ld4*] | fold lower MIC compared to KR-12, C. albicans [1]: 16 fold

Molecule | MIC C. albicans ([1]; ATCC 90028, 5 h) | MIC E. coli [2] | MIC P. aeruginosa ([3]; ATCC 27853, 5 h) | MIC S. aureus [4] | further results
CC[C@H](C)[C@@H]1NC(=O)[C@H](CCCNC(=N)N)NC(=O)[C@H](CCC(N)=O)NC(=O)[C@H](C(C)C)NC(=O)[C@H]([C@@H](C)CC)NC(=O)[C@H](CCCNC(=N)N)NC(=O)[C@H](CCCCN)NC(=O)[C@H](C)NC(=O)CNC(=O)[C@H](CCCNC(=N)N)NC(=O)[C@H](CC(C)C)NC(=O)[C@H](Cc2ccccc2)NC(=O)[C@H](CC(=O)O)NC(=O)[C@H](CCCCN)NC(=O)[C@H]([C@@H](C)CC)NC(=O)[C@H](CCCNC(=N)N)NC(=O)[C@H](CCC(N)=O)NC(=O)[C@H](C(C)C)NC(=O)[C@H]([C@@H](C)CC)NC(=O)[C@H](CCCNC(=N)N)NC(=O)[C@H](CCCCN)NC(=O)[C@H](C)NC(=O)CNC(=O)[C@H](CCCNC(=N)N)NC(=O)[C@H](CC(C)C)NC(=O)[C@H](Cc2ccccc2)NC(=O)[C@H](CC(=O)O)NC(=O)[C@H](CCCCN)NC1=O [cd2] (cyclo(AKRIVQRIKDFLRGAKRIVQRIKDFLRG)) | – | 0.625 µM (≈ 2.1 µg/mL) | 0.625 µM (≈ 2.1 µg/mL) | 1.25 µM (≈ 4.21 µg/mL) | remaining at 6 h ([5]; human): ~30%
RLFDKIRQVIRK [retro-KR-12] | 5 µM | 5 µM | 10 µM | 10 µM | detection in serum after 20 min ([5]; 37°C): could not be detected; remaining at 10 min ([5]; human): ~20%
